Columns and labels:
[1] = target: GDP-bound NRAS wild-type protein (Homo sapiens, UniProt P01111); experiment: Binding to NRAS by surface plasmon resonance (SPR), Single Cycle Kinetics; details: SPR KD ratio NRAS/KRAS, class symbols
[2] = test system: human lung cancer strain NCI-H441;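 further: cell proliferation inhibition after four days measured by CellTiter-Glo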
[3] = target: GDP-bound KRAS wild-type protein (Homo sapiens, UniProt P01116); experiment: Binding to KRAS by surface plasmon resonance (SPR), Single Cycle Kinetics; details: SPR Single Cycle Kinetics, GDP-bound KRAS wild-type protein, 1:1 binding model; read-out: KRAS KD
Sequence of GDP-bound KRAS wild-type protein (P01116 whole entry): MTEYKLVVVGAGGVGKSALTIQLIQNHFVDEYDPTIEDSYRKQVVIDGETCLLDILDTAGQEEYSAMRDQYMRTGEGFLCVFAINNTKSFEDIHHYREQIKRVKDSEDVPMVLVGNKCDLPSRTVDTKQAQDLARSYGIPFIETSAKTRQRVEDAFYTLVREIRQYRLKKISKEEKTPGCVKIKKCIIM

[4] = target: GDP-bound HRAS wild-type protein (Homo sapiens, UniProt P01112); experiment: Binding to HRAS by surface plasmon resonance (SPR), Single Cycle Kinetics; details: SPR KD ratio HRAS/KRAS, class symbols
Sequence of GDP-bound HRAS wild-type protein (P01112 whole entry): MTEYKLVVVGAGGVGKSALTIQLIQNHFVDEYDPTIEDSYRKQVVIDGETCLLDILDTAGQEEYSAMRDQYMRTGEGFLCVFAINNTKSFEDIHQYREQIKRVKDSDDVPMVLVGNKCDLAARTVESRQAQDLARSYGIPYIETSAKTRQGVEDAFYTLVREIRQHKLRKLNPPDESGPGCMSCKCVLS

Sequence of GDP-bound NRAS wild-type protein (P01111 whole entry): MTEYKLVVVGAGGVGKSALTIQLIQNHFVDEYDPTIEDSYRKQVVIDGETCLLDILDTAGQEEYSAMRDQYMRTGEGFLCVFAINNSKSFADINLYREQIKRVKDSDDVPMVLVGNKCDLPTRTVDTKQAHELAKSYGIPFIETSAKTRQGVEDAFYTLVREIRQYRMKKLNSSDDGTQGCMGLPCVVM

SMILES | NRAS/KRAS (ratio of KD value with respect to GDP-bound NRAS wild-type protein to KD value with respect to KRAS) [1] | IC50 [2] [nM] | Kd [3] [nM] | HRAS/KRAS (ratio of KD value with respect to GDP-bound HRAS wild-type protein to KD value with respect to KRAS) [4]
CC[C@H](C)[C@@H]1NC(=O)[C@H](COC)N(C)C(=O)C[C@@H](C(=O)N(C)C)N(C)C(=O)[C@H](C2CCCC2)N(C)C(=O)C2(CC(C)(C)C2)NC(=O)[C@@H]2C[C@@H](OC3CCCC3)CN2C(=O)[C@H](CCc2ccc(Cl)c(Cl)c2)NC(=O)CN(C)C(=O)[C@H](Cc2ccc(C)cc2)N2CC/C=C\C[C@@H](C2=O)N(C)C(=O)CN(C2CC2)C1=O [PP2628] | A (a compound having 10 or more and less than 20 is denoted as A) | 67.9 | 0.9 | A (a compound having 10 or more and less than 20 is denoted as A)
CC[C@H](C)[C@@H]1NC(=O)[C@H](COC)N(C)C(=O)C[C@@H](C(=O)N(C)C)N(C)C(=O)[C@H](C2CCCC2)N(C)C(=O)C2(CC(C)(C)C2)NC(=O)[C@@H]2C[C@@H](OC3CCCC3)CN2C(=O)[C@H](CCc2cc(F)c(C(F)(F)F)c(F)c2)NC(=O)CN(C)C(=O)[C@H](CC2CCCCC2)N2CC/C=C\C[C@@H](C2=O)N(C)C(=O)CN(C2CC2)C1=O [PP2630] | A (a compound having 10 or more and less than 20 is denoted as A) | 190 | 3 | B (a compound having 3 or more and less than 10 is denoted as B)
CCC(CC)[C@H]1C(=O)N(C)[C@H](C(=O)N(C)C)CC(=O)N(C)[C@@H](COC)C(=O)N[C@@H]([C@@H](C)CC)C(=O)N(C2CC2)CC(=O)N(C)[C@H]2C/C=C\CCN(C2=O)[C@@H](Cc2ccc(C(F)F)cc2)C(=O)N(C)CC(=O)N[C@@H](CCc2cc(F)c(C(F)(F)F)c(F)c2)C(=O)N2C[C@H](OC3CCC3)C[C@H]2C(=O)NC2(CC(C)(C)C2)C(=O)N1C [PP2631] | AA (a compound having 20 or more is denoted as AA) | 56.9 | 0.5 | A (a compound having 10 or more and less than 20 is denoted as A)
CCC(CC)[C@H]1C(=O)N(C)[C@H](C(=O)N(C)C)CC(=O)N(C)[C@@H](COC)C(=O)N[C@@H]([C@@H](C)CC)C(=O)N(C2CC2)CC(=O)N(C)[C@H]2C/C=C\CCN(C2=O)[C@@H](Cc2ccc(C(F)F)cc2)C(=O)N(C)CC(=O)N[C@@H](CCc2cc(F)c(C(F)(F)F)c(F)c2)C(=O)N2C[C@H](OC3CCCC3)C[C@H]2C(=O)NC2(CC(C)(C)C2)C(=O)N1C [PP2633] | AA (a compound having 20 or more is denoted as AA) | 29 | 0.64 | A (a compound having 10 or more and less than 20 is denoted as A)
CC[C@H](C)[C@@H]1NC(=O)[C@H](COC)N(C)C(=O)C[C@@H](C(=O)N(C)C)N(C)C(=O)[C@H](C2CCCC2)N(C)C(=O)C2(CC(C)(C)C2)NC(=O)[C@@H]2C[C@@H](OC3CCCC3)CN2C(=O)[C@H](CCc2cc(F)c(C(F)(F)F)c(F)c2)NC(=O)CN(C)C(=O)[C@H](CC2CCC(F)(F)CC2)N2CC/C=C\C[C@@H](C2=O)N(C)C(=O)CN(C2CC2)C1=O [PP2634] | A (a compound having 10 or more and less than 20 is denoted as A) | 45.4 | 0.68 | A (a compound having 10 or more and less than 20 is denoted as A)
CCO[C@@H]1C[C@H]2C(=O)NC3(CC(C)(C)C3)C(=O)N(C)[C@@H](C(CC)CC)C(=O)N(C)[C@H](C(=O)N(C)C)CC(=O)N(C)[C@@H](COC)C(=O)N[C@@H]([C@@H](C)CC)C(=O)N3CCC[C@H]3C(=O)N(C)[C@H]3C/C=C\CCN(C3=O)[C@@H](Cc3ccc(C(F)(F)F)cc3)C(=O)N(C)CC(=O)N[C@@H](CCc3ccc(Cl)c(Cl)c3)C(=O)N2C1 [PP2635] | AA (a compound having 20 or more is denoted as AA) | 50.2 | 0.97 | A (a compound having 10 or more and less than 20 is denoted as A)
CCC[C@H]1C(=O)N[C@@H]([C@@H](C)CC)C(=O)N2CCC[C@H]2C(=O)N(C)[C@H]2C/C=C\CCN(C2=O)[C@@H](Cc2ccc(C(F)F)cc2)C(=O)N(C)CC(=O)N[C@@H](CCc2ccc(Cl)c(Cl)c2)C(=O)N2C[C@H](OCC)C[C@H]2C(=O)NC2(CC(C)(C)C2)C(=O)N(C)[C@@H](C(CC)CC)C(=O)N(C)[C@H](C(=O)N(C)C)CC(=O)N1C [PP2637] | AA (a compound having 20 or more is denoted as AA) | 61.4 | 1 | A (a compound having 10 or more and less than 20 is denoted as A)
CCC[C@H]1C(=O)N[C@@H]([C@@H](C)CC)C(=O)N2CCC[C@H]2C(=O)N(C)[C@H]2C/C=C\CCN(C2=O)[C@@H](Cc2ccc(C)cc2)C(=O)N(C)CC(=O)N[C@@H](CCc2ccc(Cl)c(Cl)c2)C(=O)N2C[C@H](OCC)C[C@H]2C(=O)NC2(CC(C)(C)C2)C(=O)N(C)[C@@H](C(CC)CC)C(=O)N(C)[C@H](C(=O)N(C)C)CC(=O)N1C [PP2638] | AA (a compound having 20 or more is denoted as AA) | 97 | 2.5 | A (a compound having 10 or more and less than 20 is denoted as A)
CCC(CC)[C@H]1C(=O)N(C)[C@H](C(=O)N(C)C)CC(=O)N(C)[C@@H](COC)C(=O)N[C@@H]([C@@H](C)CC)C(=O)N2CCC[C@H]2C(=O)N(C)[C@H]2C/C=C\CCN(C2=O)[C@@H](Cc2ccc(C(F)(F)F)cc2)C(=O)N(C)CC(=O)N[C@@H](CCc2ccc(Cl)c(Cl)c2)C(=O)N2C[C@H](OC(C)C)C[C@H]2C(=O)NC2(CC(C)(C)C2)C(=O)N1C [PP2639] | AA (a compound having 20 or more is denoted as AA) | 81.6 | 1.1 | A (a compound having 10 or more and less than 20 is denoted as A)
CCC[C@H]1C(=O)N[C@@H]([C@@H](C)CC)C(=O)N2CCC[C@H]2C(=O)N(C)[C@H]2C/C=C\CCN(C2=O)[C@@H](Cc2ccc(C(F)F)cc2)C(=O)N(C)CC(=O)N[C@@H](CCc2ccc(Cl)c(Cl)c2)C(=O)N2C[C@H](OC(C)C)C[C@H]2C(=O)NC2(CC(C)(C)C2)C(=O)N(C)[C@@H](C(CC)CC)C(=O)N(C)[C@H](C(=O)N(C)C)CC(=O)N1C [PP2640] | AA (a compound having 20 or more is denoted as AA) | 84.1 | 1.4 | A (a compound having 10 or more and less than 20 is denoted as A)
CCC[C@H]1C(=O)N[C@@H]([C@@H](C)CC)C(=O)N2CCC[C@H]2C(=O)N(C)[C@H]2C/C=C\CCN(C2=O)[C@@H](Cc2ccc(C)cc2)C(=O)N(C)CC(=O)N[C@@H](CCc2ccc(Cl)c(Cl)c2)C(=O)N2C[C@H](OC(C)C)C[C@H]2C(=O)NC2(CC(C)(C)C2)C(=O)N(C)[C@@H](C(CC)CC)C(=O)N(C)[C@H](C(=O)N(C)C)CC(=O)N1C [PP2641] | AA (a compound having 20 or more is denoted as AA) | 98.6 | 2 | A (a compound having 10 or more and less than 20 is denoted as A)
CCC(CC)[C@H]1C(=O)N(C)[C@H](C(=O)N(C)C)CC(=O)N(C)[C@@H](COC)C(=O)N[C@@H]([C@@H](C)CC)C(=O)N(C)CC(=O)N(C)[C@H]2C/C=C\CCN(C2=O)[C@@H](Cc2ccc(C(F)(F)F)cc2)C(=O)N(C)CC(=O)N[C@@H](CCc2ccc(Cl)c(Cl)c2)C(=O)N2C[C@H](OC3CCC3)C[C@H]2C(=O)NC2(CC(C)(C)C2)C(=O)N1C [PP2642] | AA (a compound having 20 or more is denoted as AA) | 36.6 | 0.44 | A (a compound having 10 or more and less than 20 is denoted as A)
CCC[C@H]1C(=O)N[C@@H]([C@@H](C)CC)C(=O)N(C)CC(=O)N(C)[C@H]2C/C=C\CCN(C2=O)[C@@H](Cc2ccc(C(F)F)cc2)C(=O)N(C)CC(=O)N[C@@H](CCc2ccc(Cl)c(Cl)c2)C(=O)N2C[C@H](OC3CCC3)C[C@H]2C(=O)NC2(CC(C)(C)C2)C(=O)N(C)[C@@H](C(CC)CC)C(=O)N(C)[C@H](C(=O)N(C)C)CC(=O)N1C [PP2643] | AA (a compound having 20 or more is denoted as AA) | 32.7 | 0.49 | A (a compound having 10 or more and less than 20 is denoted as A)
